Series [1] has as its system Sprague Dawley Rats Maintained on a High Cholesterol Atherogenic Diet. The series can be described thus: Oral treatment of hypercholesterolemia in Sprague Dawley rats on a high cholesterol atherogenic diet. The settings on record: 10 mg/kg once daily by oral gavage in sesame oil, five days, p≦0.01. In kind it is in vivo, rat. As for the experimental part:
Six week-old male Sprague Dawley rats (HSD, Harlan) were housed in a fixed 12-12- hr artificial light-dark cycle, and maintained on a high cholesterol, atherogenic diet ad libitum (#C13002, Research Diets, NJ).
Animals were maintained on this diet throughout the course of the study.
Following six days of maintenance on the high cholesterol diet, the animals were bled from the tail vein (100-200 μL of whole blood) and serum levels of total cholesterol were measured in duplicate (Infinity Cholesterol Kit; Sigma, St. Louis, Mo.). Based on these initial measures, animals were sorted into groups with approximately the same average serum cholesterol levels. Once sorted, the animals were housed three per cage and maintained on the high cholesterol diet ad libitum.
Treatment groups(n=6/group):
1) Lean Sprague Dawley control (sesame oil)
2) High cholesterol fed control (sesame oil)
3) Compound 1 in sesame oil (10 mg/kg; once daily)
Drug is prepared by mixing Compound 1 in sesame oil, and administered to animals in a volume of 3 ml/kg/dose. Drug is administered by oral gavage daily for five consecutive days.
To monitor the effect of Compound 1, animals were bled from the tail vein five days after commencement of oral treatment. Serum cholesterols were measured in duplicate. […]

The test system of series [2] is Obese, Glucose Intolerant Zucker Fatty Rats (fa/fa). The series can be described thus: Glucose tolerance test in obese, glucose intolerant Zucker Fatty Rats (fa/fa) after oral treatment. Type of series: in vivo, rat. The settings on record: 10 mg/kg once daily by oral gavage in sesame oil, 1 week; 2 g/kg oral glucose after 12 hr fast, serum glucose at 0.5, 1, 2 hours; p<0.05 and p<0.01; FIG. 3. As for the experimental part:
Ten week-old male Zucker Fatty Rats (fa/fa; Harlan) were housed in a fixed 12-12- hr artificial light-dark cycle, and maintained on a standard diet provided ad libitum. Animals were allowed two days to acclimate in this experimental environment prior to the initiation of the study.
Prior to initiation of treatment, the animals were bled from the tail vein (100-200 μL of whole blood) and serum levels of triglycerides were measured in duplicate (Infinity kits; Sigma, St. Louis, Mo.). Based on these initial measures, animals were sorted into groups with approximately the same average serum triglyceride levels. Once sorted, the animals were housed one per cage and provided standard rodent diet ad libitum.
Treatment groups (n=5/group):
2) Compound 1 in sesame oil (10 mg/kg once daily)
Drug is prepared by mixing Compound 1 in sesame oil, and administered to animals in a volume of 3 ml/kg/dose. Drug is administered by oral gavage once daily.
To monitor the effect of Compound 1, animals were tested in a glucose tolerance test. One day prior to the tolerance test, the animals were fasted overnight (12 hr fast). Animals were then bled at 0 hours to establish baseline glucose levels. […] The animals were then bled 0.5, 1, and 2 hours later and serum glucose levels were measured in duplicate. […]

The results in this text go back to patent US20030083357A1, “Oxime derivatives for the treatment of dyslipidemia and hypercholesteremia” (priority 2001, published 2003).

“Also recorded” adds a separate entry of the source.

For orientation: melting point means the temperature of the solid-liquid transition. As for `COc1ccc(/C=N/O)cc1-c1cc2c(cc1C)C(C)(C)CCC2(C)C` [Compound 1, 3-(3,5,5,8,8-Pentamethyl-5,6,7,8-tetrahydro-2-naphthyl)-4-methoxybenzaldehyde oxime], the melting point stood at 152 °C. Moreover, the total serum cholesterol result in series [1] (compared to control animals on the same atherogenic diet, FIG. 1) is on record as “significantly reduced”. Besides, in series [1] (compared to controls, FIG. 2), the LDL cholesterol levels entry was “reduced”. Further, the “glucose clearance rate (glucose tolerance test)” value in series [2] is reported as “improvement of glucose tolerance; also recorded: significant increase”.
